According to patent US12391737B2, “Soluble NPY2 receptor agonists” (Boehringer Ingelheim International GmbH, priority 2020, dated 2025):

How the values were obtained:
[1] = biological target: T1, Human Neuropeptide Y2 Receptor (Homo sapiens, UniProt P49146); assay: Radioligand binding competition assay (RLB); conditions: Table 3, 125I-PYY(1-36) competition; read-out: Ki
T1 construct: purchased CHEMICON HTS066M
T1 sequence (P49146 1-381): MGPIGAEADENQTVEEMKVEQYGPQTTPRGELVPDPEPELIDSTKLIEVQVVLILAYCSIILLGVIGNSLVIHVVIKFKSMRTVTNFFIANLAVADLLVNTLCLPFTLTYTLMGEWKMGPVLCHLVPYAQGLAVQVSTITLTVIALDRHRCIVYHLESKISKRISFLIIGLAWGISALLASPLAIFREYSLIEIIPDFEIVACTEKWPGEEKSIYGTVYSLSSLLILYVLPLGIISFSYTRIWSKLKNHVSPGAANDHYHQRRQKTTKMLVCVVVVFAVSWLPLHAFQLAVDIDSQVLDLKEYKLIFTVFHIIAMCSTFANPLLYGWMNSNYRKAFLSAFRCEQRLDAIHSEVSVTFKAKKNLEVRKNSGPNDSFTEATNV
Method in brief: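 Receptor membranes, 0.5 μg/well; buffer 50 mM HEPES/5 mM MgCl2/1 mM CaCl2/0.2% ovalbumin, pH 7.4; 2 h RT, shaking. GF/C filtration, cold HEPES/500 mM NaCl wash, scintillation count. IC50 by nonlinear regression.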

Solubility determination = conditions: for Sol6: pH 6; for Sol7: pH 7
Method in brief: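 Shake-flask style: 10 mg/ml peptide (TFA salt), 0.1 M sodium diphosphate pH 6.4/7.0, 600 rpm, 2 h, RT; filter; dilute 1 mg/ml in 50% MeCN; RP-UPLC, 0–100% B over 2 min, 50 °C. Solubility = sample/control area ratio. Final pH recorded.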

Ki [1] | Sol6 (Solubility determination) | Sol7 (Solubility determination) | Compound
9.76 nM | 9.7 mg/mL | 9.6 mg/mL | CC(C)CC(=O)N[C@@H](C)C(=O)N1CCC[C@H]1C(=O)N[C@@H](CCC(=O)O)C(=O)N[C@@H](CCCCNC(=O)CCCCCNC(=O)CC[C@H](NC(=O)CCCCCCCCCCCCCCCCC(=O)O)C(=O)O)C(=O)N1CCC[C@H]1C(=O)N[C@@H](CCC(=O)O)C(=O)N[C@@H](CCC(=O)O)C(=O)N[C@@H](CC(=O)O)C(=O)N[C@@H](CCC(N)=O)C(=O)N[C@H](C(=O)N1CCC[C@H]1C(=O)N[C@@H](CCC(=O)O)C(=O)N[C@@H](CCC(=O)O)C(=O)N[C@@H](CC(C)C)C(=O)N[C@@H](CCC(N)=O)C(=O)N[C@@H](CCCNC(=N)N)C(=O)N[C@@H](Cc1ccc(O)cc1)C(=O)N[C@@H](Cc1ccc(O)cc1)C(=O)N[C@H](C(=O)N[C@@H](CO)C(=O)N[C@@H](CC(C)C)C(=O)N[C@@H](CCCNC(=N)N)C(=O)N[C@@H](Cc1c[nH]cn1)C(=O)N[C@@H](Cc1ccc(O)cc1)C(=O)N[C@@H](Cc1ccc(O)cc1)C(=O)N[C@@H](CC(N)=O)C(=O)N[C@@H](Cc1c[nH]c2ccccc12)C(=O)N[C@@H](CC(C)C)C(=O)N[C@H](C(=O)N[C@@H](CCCNC(=N)N)C(=O)N[C@@H](CCC(N)=O)C(=O)N[C@@H](CCCNC(=N)N)C(=O)N[C@@H](Cc1ccc(O)cc1)C(N)=O)[C@@H](C)O)C(C)C)[C@@H](C)O [Compound 144, N{alpha-4}-(3-methylbutanoyl)-N{epsilon-7}-(6-[(4S)-4-carboxy-4-(17-carboxyheptadecanamido)butanamido]hexanoyl)-[4A,7K,9E,12Q,13T,18Q,22V,28Y,30W,31L]-hPYY(4-36)]
2.85 nM | 9.7 mg/mL | 10.0 mg/mL | CC(C)CC(=O)N[C@@H](C)C(=O)N1CCC[C@H]1C(=O)N[C@@H](CCC(=O)O)C(=O)N[C@@H](CCCCNC(=O)CCCCCNC(=O)CC[C@H](NC(=O)CCCCCCCCCCCCCCCCC(=O)O)C(=O)O)C(=O)N1CCC[C@H]1C(=O)N[C@@H](CCC(=O)O)C(=O)N[C@@H](CCC(=O)O)C(=O)N[C@@H](CC(=O)O)C(=O)N[C@@H](C)C(=O)N[C@H](C(=O)N1CCC[C@H]1C(=O)N[C@@H](CCC(=O)O)C(=O)N[C@@H](CCC(=O)O)C(=O)N[C@@H](CC(C)C)C(=O)N[C@@H](CCC(N)=O)C(=O)N[C@@H](CCCNC(=N)N)C(=O)N[C@@H](Cc1ccc(O)cc1)C(=O)N[C@@H](Cc1ccc(O)cc1)C(=O)N[C@H](C(=O)N[C@H](C(=O)N[C@@H](CC(C)C)C(=O)N[C@@H](CCCNC(=N)N)C(=O)N[C@@H](Cc1c[nH]cn1)C(=O)N[C@@H](Cc1ccc(O)cc1)C(=O)N[C@@H](Cc1ccc(O)cc1)C(=O)N[C@@H](CC(N)=O)C(=O)N[C@@H](Cc1c[nH]c2ccccc12)C(=O)N[C@@H](CC(C)C)C(=O)N[C@H](C(=O)N[C@@H](CCCNC(=N)N)C(=O)N[C@@H](CCC(N)=O)C(=O)N[C@@H](CCCNC(=N)N)C(=O)N[C@@H](Cc1ccc(O)cc1)C(N)=O)[C@@H](C)O)[C@@H](C)O)C(C)C)[C@@H](C)O [Compound 148, N{alpha-4}-(3-methylbutanoyl)-N{epsilon-7}-(6-[(4S)-4-carboxy-4-(17-carboxyheptadecanamido)butanamido]hexanoyl)-[4A,7K,9E,13T,18Q,22V,23T,28Y,30W,31L]-hPYY(4-36)]
3.97 nM | 8.7 mg/mL | 10.0 mg/mL | CC(C)CC(=O)N[C@@H](C)C(=O)N1CCC[C@H]1C(=O)N[C@@H](C)C(=O)N[C@@H](CCCCNC(=O)CCCCCNC(=O)CC[C@H](NC(=O)CCCCCCCCCCCCCCCCC(=O)O)C(=O)O)C(=O)N1CCC[C@H]1C(=O)N[C@@H](CCC(=O)O)C(=O)N[C@@H](CCC(=O)O)C(=O)N[C@@H](CC(=O)O)C(=O)N[C@@H](C)C(=O)N[C@@H](CO)C(=O)N1CCC[C@H]1C(=O)N[C@@H](CCC(=O)O)C(=O)N[C@@H](CCC(=O)O)C(=O)N[C@@H](CO)C(=O)N[C@@H](CCC(N)=O)C(=O)N[C@@H](CCCNC(=N)N)C(=O)N[C@@H](Cc1ccc(O)cc1)C(=O)N[C@@H](Cc1ccc(O)cc1)C(=O)N[C@H](C(=O)N[C@@H](CO)C(=O)N[C@@H](CC(C)C)C(=O)N[C@@H](CCCNC(=N)N)C(=O)N[C@@H](Cc1c[nH]cn1)C(=O)N[C@@H](Cc1ccc(O)cc1)C(=O)N[C@@H](Cc1ccc(O)cc1)C(=O)N[C@@H](CC(N)=O)C(=O)N[C@@H](Cc1c[nH]c2ccccc12)C(=O)N[C@@H](CC(C)C)C(=O)N[C@H](C(=O)N[C@@H](CCCNC(=N)N)C(=O)N[C@@H](CCC(N)=O)C(=O)N[C@@H](CCCNC(=N)N)C(=O)N[C@@H](Cc1ccc(O)cc1)C(N)=O)[C@@H](C)O)C(C)C [Compound 149, N{alpha-4}-(3-methylbutanoyl)-N{epsilon-7}-(6-[(4S)-4-carboxy-4-(17-carboxyheptadecanamido)butanamido]hexanoyl)-[4A,6A,7K,9E,17S,18Q,22V,28Y,30W,31L]-hPYY(4-36)]
1.68 nM | 8.2 mg/mL | 9.7 mg/mL | CC(C)CC(=O)N[C@@H](C)C(=O)N1CCC[C@H]1C(=O)N[C@@H](CCC(=O)O)C(=O)N[C@@H](CCCCNC(=O)CCCCCNC(=O)CC[C@H](NC(=O)CCCCCCCCCCCCCCCCC(=O)O)C(=O)O)C(=O)N1CCC[C@H]1C(=O)N[C@@H](CCC(=O)O)C(=O)N[C@@H](CCC(=O)O)C(=O)N[C@@H](CC(=O)O)C(=O)N[C@@H](CO)C(=O)N[C@@H](CO)C(=O)N1CCC[C@H]1C(=O)N[C@@H](CCC(=O)O)C(=O)N[C@@H](CCC(=O)O)C(=O)N[C@@H](CC(C)C)C(=O)N[C@@H](CCC(N)=O)C(=O)N[C@@H](CCCNC(=N)N)C(=O)N[C@@H](Cc1ccc(O)cc1)C(=O)N[C@@H](Cc1ccc(O)cc1)C(=O)N[C@H](C(=O)N[C@@H](C)C(=O)N[C@@H](CC(C)C)C(=O)N[C@@H](CCCNC(=N)N)C(=O)N[C@@H](Cc1c[nH]cn1)C(=O)N[C@@H](Cc1ccc(O)cc1)C(=O)N[C@@H](Cc1ccc(O)cc1)C(=O)N[C@@H](CC(N)=O)C(=O)N[C@@H](Cc1c[nH]c2ccccc12)C(=O)N[C@@H](CC(C)C)C(=O)N[C@H](C(=O)N[C@@H](CCCNC(=N)N)C(=O)N[C@@H](CCC(N)=O)C(=O)N[C@@H](CCCNC(=N)N)C(=O)N[C@@H](Cc1ccc(O)cc1)C(N)=O)[C@@H](C)O)C(C)C [Compound 151, N{alpha-4}-(3-methylbutanoyl)-N{epsilon-7}-(6-[(4S)-4-carboxy-4-(17-carboxyheptadecanamido)butanamido]hexanoyl)-[4A,7K,9E,12S,18Q,22V,23A,28Y,30W,31L]-hPYY(4-36)]
1.32 nM | 8.8 mg/mL | 8.8 mg/mL | CC(C)CC(=O)N[C@@H](C)C(=O)N1CCC[C@H]1C(=O)N[C@@H](CCC(=O)O)C(=O)N[C@@H](CCCCNC(=O)CCCCCNC(=O)CC[C@H](NC(=O)CCCCCCCCCCCCCCCCC(=O)O)C(=O)O)C(=O)N1CCC[C@H]1C(=O)N[C@@H](CCC(=O)O)C(=O)N[C@@H](CCC(=O)O)C(=O)N[C@@H](CC(=O)O)C(=O)N[C@@H](C)C(=O)N[C@H](C(=O)N1CCC[C@H]1C(=O)N[C@@H](CCC(=O)O)C(=O)N[C@@H](CCC(=O)O)C(=O)N[C@H](C(=O)N[C@@H](CCC(N)=O)C(=O)N[C@@H](CCCNC(=N)N)C(=O)N[C@@H](Cc1ccc(O)cc1)C(=O)N[C@@H](Cc1ccc(O)cc1)C(=O)N[C@H](C(=O)N[C@@H](CO)C(=O)N[C@@H](CC(C)C)C(=O)N[C@@H](CCCNC(=N)N)C(=O)N[C@@H](Cc1c[nH]cn1)C(=O)N[C@@H](Cc1ccc(O)cc1)C(=O)N[C@@H](Cc1ccc(O)cc1)C(=O)N[C@@H](CC(N)=O)C(=O)N[C@@H](Cc1c[nH]c2ccccc12)C(=O)N[C@@H](CC(C)C)C(=O)N[C@H](C(=O)N[C@@H](CCCNC(=N)N)C(=O)N[C@@H](CCC(N)=O)C(=O)N[C@@H](CCCNC(=N)N)C(=O)N[C@@H](Cc1ccc(O)cc1)C(N)=O)[C@@H](C)O)C(C)C)[C@@H](C)O)[C@@H](C)O [Compound 152, N{alpha-4}-(3-methylbutanoyl)-N{epsilon-7}-(6-[(4S)-4-carboxy-4-(17-carboxyheptadecanamido)butanamido]hexanoyl)-[4A,7K,9E,13T,17T,18Q,22V,28Y,30W,31L]-hPYY(4-36)]
6.8 nM | 6.0 mg/mL | 9.5 mg/mL | CC(C)CC(=O)N[C@@H](C)C(=O)N1CCC[C@H]1C(=O)N[C@@H](CCC(=O)O)C(=O)N[C@@H](CCCCNC(=O)CCCCCNC(=O)CC[C@H](NC(=O)CCCCCCCCCCCCCCCCC(=O)O)C(=O)O)C(=O)N1CCC[C@H]1C(=O)N[C@@H](CCC(=O)O)C(=O)N[C@@H](CCC(=O)O)C(=O)N[C@@H](CC(C)C)C(=O)N[C@@H](C)C(=O)N[C@H](C(=O)N1CCC[C@H]1C(=O)N[C@@H](CCC(=O)O)C(=O)N[C@@H](CCC(=O)O)C(=O)N[C@@H](CC(C)C)C(=O)N[C@@H](CCC(N)=O)C(=O)N[C@@H](CCCNC(=N)N)C(=O)N[C@@H](Cc1ccc(O)cc1)C(=O)N[C@@H](Cc1ccc(O)cc1)C(=O)N[C@H](C(=O)N[C@@H](CO)C(=O)N[C@@H](CC(C)C)C(=O)N[C@@H](CCCNC(=N)N)C(=O)N[C@@H](Cc1c[nH]cn1)C(=O)N[C@@H](Cc1ccc(O)cc1)C(=O)N[C@@H](Cc1ccc(O)cc1)C(=O)N[C@@H](CC(N)=O)C(=O)N[C@@H](Cc1c[nH]c2ccccc12)C(=O)N[C@@H](CC(C)C)C(=O)N[C@H](C(=O)N[C@@H](CCCNC(=N)N)C(=O)N[C@@H](CCC(N)=O)C(=O)N[C@@H](CCCNC(=N)N)C(=O)N[C@@H](Cc1ccc(O)cc1)C(N)=O)[C@@H](C)O)C(C)C)[C@@H](C)O [Compound 153, N{alpha-4}-(3-methylbutanoyl)-N{epsilon-7}-(6-[(4S)-4-carboxy-4-(17-carboxyheptadecanamido)butanamido]hexanoyl)-[4A,7K,9E,11L,13T,18Q,22V,28Y,30W,31L]-hPYY(4-36)]
